Patent publication US20260193227A1, “THERAPEUTIC COMPOUNDS AND METHODS” (UNIVERSITY OF IOWA RESEARCH FOUNDATION, priority 2022, published 2026)

What was measured:
RAD52-ssDNA interaction [1] = target: T1, RAD52-ssDNA interaction (Homo sapiens, UniProt P43351); assay: FRET-based inhibition of the RAD52-ssDNA interaction; assay type: binding; details: for selectivity towards RAD52 over RPA: in vitro FRET-based assays; for IC50: 6 nM RAD52, 1 nM Cy3-dT30-Cy5 ssDNA, 25° C., value ± fitting error
T1 construct: 6xHis; made in house
T1 sequence (P43351 1-418): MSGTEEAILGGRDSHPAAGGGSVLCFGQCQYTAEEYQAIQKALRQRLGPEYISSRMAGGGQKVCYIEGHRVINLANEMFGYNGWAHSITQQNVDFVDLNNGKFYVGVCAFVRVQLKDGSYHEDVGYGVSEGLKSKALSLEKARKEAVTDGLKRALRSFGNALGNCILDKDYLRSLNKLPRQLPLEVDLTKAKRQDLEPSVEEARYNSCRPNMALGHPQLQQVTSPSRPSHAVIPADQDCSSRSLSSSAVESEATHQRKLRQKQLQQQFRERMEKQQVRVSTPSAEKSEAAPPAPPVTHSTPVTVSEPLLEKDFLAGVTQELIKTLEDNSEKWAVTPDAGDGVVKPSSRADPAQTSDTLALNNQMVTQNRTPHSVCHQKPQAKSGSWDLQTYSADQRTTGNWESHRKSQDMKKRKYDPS
Method: (§1) Proteins: The 6×His-tagged human RAD52 proteins (wild type and mutants) and untagged human RPA were expressed and purified as previously described in (Hengel S R, eLife. 2016; 5; Grimme J M, et al., Nucleic Acids Res. 2010; 38(9):2917-30; and Henricksen L A, et al., The Journal of biological chemistry. 1994; 269(15):11121-32). RPA and RAD52 protein concentrations were determined by measuring absorbance at 280 nm using extinction coefficients of 88,830 M^−1 cm^−1 and 40,470 M^−1 cm^−1, respectively.
(§2) FRET-based DNA binding and inhibition assays: FRET-based that monitor the RAD52-ssDNA, RPA-ssDNA and RAD52-RPA-ssDNA binding were carried out as previously described (Hengel S R, eLife. 2016; 5; Grimme J M, et al., Nucleic Acids Res. 2010; 38(9):2917-30; and Grimme J M, Spies M. FRET-based assays to monitor DNA binding and annealing by Rad52 recombination mediator protein. Methods in molecular biology (Clifton, NJ). 2011; 745:463-83) using Cary Eclipse Spectrofluorimeter (Agilent) at 25° C., in 5 mm quartz cuvettes, and in buffer containing 30 mM Tris-Acetate (pH 7.5) and 1 mM DTT. Cy3 dye was excited at 530 nm and its emission was monitored at 565 nm. Emission of Cy5 acceptor fluorophore excited through the energy transfer from Cy3 donor is monitored at 660 nm simultaneously with emission of Cy3 dye. Both the excitation and the emission slits were set to 10 nm. All experiments were carried out using 1 nM (molecules) Cy3-dT30-Cy5 ssDNA. The optimal concentrations of the RAD52 (6 nM) and RPA (1 nM) proteins were selected by titrating the respective protein into 1 nM Cy3-dT30-Cy5 solution, and chosen based on the largest separation of the FRET values corresponding to the protein bound and free DNA.
(§3) The inhibition of the RAD52-ssDNA, RPA-ssDNA and RAD52-RPA-ssDNA complexes was evaluated by titrating each compound to the respective complex, measuring Cy3 and Cy5 fluorescence, and calculating FRET as previously described (Hengel, S. R., et al., eLife, 5).
(§4) Spectral properties of many compounds overlapped with the Cy3 and Cy5 fluorescence. To correct the calculated FRET values for the compound signal, the fluorogenic compounds were titrated into buffer and into solution of 1 nM Cy3-dT30-Cy5. For all tested compounds, the change in the signal in the Cy3 and Cy5 channels with and without Cy3/Cy5-labeled DNA present was the same. […] To account for the dye fluorescence, for each compound concentration, the apparent change in FRET of the ssDNA in the presence the compound was subtracted from the respective FRET signal of the RAD52-ssDNA, RPA-ssDNA or RAD52-ssDNA-RPA complex at the same inhibitor concentration. The IC50 values were calculated by fitting the corrected FRET data to the four-parameter dose response model using GraphPad Prism. All data are shown as average for at least three independent experiments ±standard deviation. The IC50 values are presented with their respective fitting error.

EUFA423F HA cells [2] = assay: CellTiter-Glo cell viability, BRCA2-complemented cells; assay type: cell-based, human; details: yes/no
Excerpt: (§5) Cell lines: EUFA423F cells that are derived from a Fanconi Anemia patient with complementation group D1 and have biallelic mutations (7691 insAT and 9900 insA) in BRCA2 that result in two different truncated forms of BRCA2 (Howlett N G, et al., Science (New York, NY). 2002; 297(5581):606-9) and its counterpart complemented with expression vector for full-length BRCA2 (EUFA HA) were a generous gift from Dr. Simon Powell, Molecular Biology Program, Radiation Oncology, Sloan-Kettering Cancer Center, New York, NY).
(§6) Cell proliferation assay: Selective toxicity of the compounds towards human BRCA2 deficient cells was tested in EUFA423F and its complement EUFA423F HA using CellTiter-Glo® Luminescent Cell Viability Assay (Promega, Madison, WI). The cell lines were maintained in DMEM (Gibco/ThermoFisher Scientific, Waltham, MA) supplemented with 10% FBS and 10 mM HEPES (Gibco/ThermoFisher Scientific, Waltham, MA). EUFA423F HA cells were routinely supplemented with G418 in order to maintain the BRCA2 expression plasmid. Both cell lines were seeded in sterile tissue culture treated, white opaque 384-well plates (Perkin Elmer Inc., Waltham, MA) 3000 cells/well for EUFA423F HA and 2500 cells/well for EUFA423F) and allowed to adhere for 24 hours. Compounds dissolved in DMSO were added in the concentration range of 0-100 μM. Controls were treated with equivalent DMSO volumes. The cells were treated with compounds for 72 hours (to ensure that all cells experienced at least two S-phases). Post treatment, the cells were washed, treated with the CellTiter-Glo® reagent was added and the plate was analyzed as using a Gen5 (ver2.1) luminosity plate reader. The luminescence that reports on ATP generation by the surviving cells was normalized for the DMSO treated control as 100%. The normalized luminescence (average±standard deviation for at least three independent measurements obtained with different cell passages) was plotted in GraphPad Prism as a function of compound concentration. Clonogenic Survival: EUFA423F and EUFA423F HA cells were seeded in a 96 well plate. Compounds dissolved in DMSO were added to final concentrations of 0, 50, and 100 μM for the compound of Example 8 and the compound of Example 1, and 0, 5, and 10 μM for the compounds of Examples 2-7. The cells were treated with compounds for 72 hours. Post treatment, cell cultures were harvested by collecting all non-adherent cells in the well, trypsinization of all adherent cells, combining, pelleting and then resuspending in fresh media. Cultures treated with DMSO only were subsequently counted using a hemocytometer and plated at a density of 2000, 200 and 20 cells per well in 6-well culture plates, equal volumes of cultures were plated each inhibitor concentration. Each treatment and cell density conditions for both cell lines were plated in triplicate. After expanding the colonies for a period of 8 days, cultures were fixed with a solution of 70% ethanol and crystal violet for clonogenic survival analysis. Pictures of individual wells were taken using GelCount (Version 1.3.0.4) by Oxford Optronix (Abingdon UK). A colony had to contain at least 50 cells to be counted. The number of surviving colonies following treatment are presented as a percentage of number of colonies in the experiment where the cells were treated with DMSO only.

EUFA423F cells [3] = assay: CellTiter-Glo cell viability, BRCA2-mutated cells; assay type: cell-based, human; details: for toxicity towards EUFA423 cells: BRCA2-mutated cells, yes/no; for toxicity / selective toxicity towards BRCA2-mutated cells in cell viability assays: EUFA423F versus EUFA423F HA, CellTiter-Glo, 72 hours
Excerpt: as §5, §6

RPA-ssDNA-RAD52 complex = target: T2, RPA-ssDNA-RAD52 complex (Homo sapiens, UniProt P43351); assay: FRET-based inhibition of the RPA-ssDNA-RAD52 complex; assay type: binding; details: for IC50: value ± fitting error, N/A = no activity
T2 construct: 6xHis; made in house
T2 sequence (P43351 1-418): T1 sequence (P43351 1-418)
Method: as §1, §2, §3, §4

[4] = Solubility in cell culture medium; assay type: physicochemical; details: for solubility: plasma or biological fluid
RPA-ssDNA interaction = target: T3, RPA-ssDNA interaction (Homo sapiens, UniProt P27694); assay: FRET-based inhibition of the RPA-ssDNA interaction; assay type: binding; details: 1 nM RPA, 1 nM Cy3-dT30-Cy5 ssDNA; value ± fitting error; N/A = no activity
T3 construct: made in house
Method: as §1, §2, §3, §4

EUFA423F HA cells [5] = details: Clark et al. 2012; Howlett et al. 2002; cited from earlier work
EUFA423F cells [6] = details: Clark et al. 2012; cited from earlier work
BRCA2-depleted cells = details: Hengel et al. 2016; cited from earlier work
RAD52-ssDNA interaction [7] = target: T1, RAD52-ssDNA interaction; details: Hengel et al. 2016; cited from earlier work

T3 sequence (P27694 whole entry): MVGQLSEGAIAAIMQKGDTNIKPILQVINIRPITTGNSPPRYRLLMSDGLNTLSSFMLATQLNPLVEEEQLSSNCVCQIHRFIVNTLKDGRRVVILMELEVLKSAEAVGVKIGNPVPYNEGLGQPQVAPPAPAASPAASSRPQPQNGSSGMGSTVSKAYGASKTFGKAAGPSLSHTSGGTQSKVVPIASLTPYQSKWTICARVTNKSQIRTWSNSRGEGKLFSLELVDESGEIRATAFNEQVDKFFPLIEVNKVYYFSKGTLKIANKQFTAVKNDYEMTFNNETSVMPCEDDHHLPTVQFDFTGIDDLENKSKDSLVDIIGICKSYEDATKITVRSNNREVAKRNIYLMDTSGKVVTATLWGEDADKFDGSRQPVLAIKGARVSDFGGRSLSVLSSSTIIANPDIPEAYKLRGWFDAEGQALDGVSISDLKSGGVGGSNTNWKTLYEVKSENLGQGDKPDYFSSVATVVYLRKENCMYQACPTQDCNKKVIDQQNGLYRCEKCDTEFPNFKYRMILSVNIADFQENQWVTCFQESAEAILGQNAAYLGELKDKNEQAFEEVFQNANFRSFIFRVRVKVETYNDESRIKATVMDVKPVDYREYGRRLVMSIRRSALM
T3 sequence (P15927 whole entry partner): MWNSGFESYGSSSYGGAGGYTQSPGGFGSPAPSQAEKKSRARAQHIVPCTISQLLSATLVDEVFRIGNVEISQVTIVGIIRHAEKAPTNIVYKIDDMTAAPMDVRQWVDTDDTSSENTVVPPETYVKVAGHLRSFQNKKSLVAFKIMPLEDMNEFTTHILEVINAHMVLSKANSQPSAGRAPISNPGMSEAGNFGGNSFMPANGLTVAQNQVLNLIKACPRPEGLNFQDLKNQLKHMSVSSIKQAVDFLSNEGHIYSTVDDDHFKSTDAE
T3 sequence (P35244 whole entry partner): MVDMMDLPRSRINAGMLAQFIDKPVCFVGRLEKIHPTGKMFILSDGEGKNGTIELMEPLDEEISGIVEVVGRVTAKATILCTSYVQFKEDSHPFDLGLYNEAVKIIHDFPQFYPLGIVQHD

SMILES | selectivity towards RAD52 over RPA (RAD52-ssDNA interaction [1]) | toxicity towards EUFA423 HA (BRCA2-complemented cells) (EUFA423F HA cells [2]) | toxicity towards EUFA423 cells (EUFA423F cells [3]) | toxicity / selective toxicity towards BRCA2-mutated cells in cell viability assays (EUFA423F cells [3]) | IC50 (RAD52-ssDNA interaction [1]) | IC50 (RPA-ssDNA-RAD52 complex) | IC50 (RPA-ssDNA interaction) | further results
O=C(Cn1cc([N+](=O)[O-])cc(Cl)c1=O)c1c[nH]c2ccc(F)cc12 [Example 5] | shows selectivity towards RAD52 over RPA | no | yes | selectively toxic to BRCA2-mutated cells |  |  |  | 
Cc1cc([N+](=O)[O-])cn(CC(=O)c2c[nH]c3ccc(Cl)cc23)c1=O [Example 3] | shows selectivity towards RAD52 over RPA | no | yes | selectively toxic to BRCA2-mutated cells | 7.97 ± 0.84 µM | 7 ± 0.29 µM | 15.9 ± 1.4 µM | solubility [4]: > 10 µM
C[C@]1(c2nc3c(C(N)=O)cccc3[nH]2)CCCN1 [veliparib] |  |  |  |  |  |  |  | sensitivity of the BRCA2-complemented (HA) cell line to the agent (EUFA423F HA cells [5]): resistant; sensitivity of EUFA423F cells to the agent (EUFA423F cells [6]): sensitive
Cc1c([N+](=O)[O-])ccn(CC(=O)c2c[nH]c3ccc(Br)cc23)c1=O [Example 6] | shows selectivity towards RAD52 over RPA | no | no | failed to inhibit both BRCA2-mutated and BRCA2-complemented cells | 2.02 ± 0.12 µM | 0.76 ± 0.05 µM | 1.12 ± 0.13 µM | solubility / aggregation in cell culture medium [4]: poorly soluble in cell culture medium
Cc1ccn(CC(=O)c2c[nH]c3ccc(F)cc23)c(=O)c1[N+](=O)[O-] [Example 4] | shows selectivity towards RAD52 over RPA | no | yes | selectively toxic to BRCA2-mutated cells |  |  |  | solubility [4]: > 10 µM
O=C(Cn1cc([N+](=O)[O-])cc(F)c1=O)c1c[nH]c2ccc(F)cc12 [Example 2] | shows selectivity towards RAD52 over RPA | no | yes |  |  |  |  | effect on the RPA-ssDNA-RAD52 complex (RPA-ssDNA-RAD52 complex; FRET titration): unable to dislodge RAD52; toxicity / selective toxicity towards BRCA2-mutated cells in cell viability assays (EUFA423F cells [3]; listed as Z58-54): selectively toxic to BRCA2-mutated cells; toxicity / selective toxicity towards BRCA2-mutated cells in cell viability assays (EUFA423F cells [3]; listed as Z5862216254): effective and specific in cell viability assays
CO[C@@]12[C@H](COC(N)=O)C3=C(C(=O)C(C)=C(N)C3=O)N1C[C@@H]1N[C@@H]12 [mitomycin C] |  |  |  |  |  |  |  | sensitivity of the BRCA2-complemented (HA) cell line to the agent (EUFA423F HA cells [5]): resistant
Oc1cc(O)c2c(c1)O[C@H](c1cc(O)c(O)c(O)c1)[C@H](O)C2 [EGC, epigallochatechin] |  |  |  |  |  |  |  | efficacy in BRCA2-depleted cells (BRCA2-depleted cells): effective; competition with ssDNA binding to RAD52 (RAD52-ssDNA interaction [7]): competed with ssDNA binding to RAD52
O=C(Cn1cc([N+](=O)[O-])cc(Br)c1=O)c1c[nH]c2ccc(Cl)cc12 [Example 7] | shows selectivity towards RAD52 over RPA | no | yes | selectively toxic to BRCA2-mutated cells | 2.84 ± 0.32 µM | 4.55 ± 0.16 µM | 28.9 ± 4 µM | 
